According to patent publication US7829325B2, “Drug testing with bio-artificial organ slices including for example those derived from liver” (HepaHope, Inc., priority 2003, dated 2010):

Key:
liver slices [1] = details: 20 mg loading dose; all trials; in presence of HL 100; FIG. 5
liver slices [2] = tested on: liver slices
[3] = 2 mg lidocaine dose, continuous and intermittent (1:3) perfusion, in presence of HL 100, FIG. 3A

| time of maximal ammonia clearance (liver slices [1]) | SMILES | lidocaine levels within 30 minutes (liver slices [2]; 2 mg dose, 6 hour trials and continuous perfusion 24 hour trial, exposed to HL 100, FIG. 3B) | level of lidocaine at 120 minutes (liver slices [2]; [3]) | level of lidocaine at approximately 30 minutes after lidocaine loading (liver slices [2]; [3]) |
| --- | --- | --- | --- | --- |
| approximately 30 minutes | N [ammonia] | – | – | – |
| – | CCN(CC)CC(=O)Nc1c(C)cccc1C [lidocaine] | approximately 0.8 μg | approximately 0.5 :g | approximately 0.9 μg |
